In patent US11779550B2, “Bisphenol ether derivatives and methods for using the same” (THE UNIVERSITY OF BRITISH COLUMBIA, priority 2015, dated 2023):
Like-named read-outs stand apart in the source and are kept apart here.

Molecular target: T1, androgen receptor (AR) (Homo sapiens, UniProt P10275, T878A)
T1 construct: endogenous in cells; host or cells: LNCaP
T1 sequence (P10275 1-920 T878A): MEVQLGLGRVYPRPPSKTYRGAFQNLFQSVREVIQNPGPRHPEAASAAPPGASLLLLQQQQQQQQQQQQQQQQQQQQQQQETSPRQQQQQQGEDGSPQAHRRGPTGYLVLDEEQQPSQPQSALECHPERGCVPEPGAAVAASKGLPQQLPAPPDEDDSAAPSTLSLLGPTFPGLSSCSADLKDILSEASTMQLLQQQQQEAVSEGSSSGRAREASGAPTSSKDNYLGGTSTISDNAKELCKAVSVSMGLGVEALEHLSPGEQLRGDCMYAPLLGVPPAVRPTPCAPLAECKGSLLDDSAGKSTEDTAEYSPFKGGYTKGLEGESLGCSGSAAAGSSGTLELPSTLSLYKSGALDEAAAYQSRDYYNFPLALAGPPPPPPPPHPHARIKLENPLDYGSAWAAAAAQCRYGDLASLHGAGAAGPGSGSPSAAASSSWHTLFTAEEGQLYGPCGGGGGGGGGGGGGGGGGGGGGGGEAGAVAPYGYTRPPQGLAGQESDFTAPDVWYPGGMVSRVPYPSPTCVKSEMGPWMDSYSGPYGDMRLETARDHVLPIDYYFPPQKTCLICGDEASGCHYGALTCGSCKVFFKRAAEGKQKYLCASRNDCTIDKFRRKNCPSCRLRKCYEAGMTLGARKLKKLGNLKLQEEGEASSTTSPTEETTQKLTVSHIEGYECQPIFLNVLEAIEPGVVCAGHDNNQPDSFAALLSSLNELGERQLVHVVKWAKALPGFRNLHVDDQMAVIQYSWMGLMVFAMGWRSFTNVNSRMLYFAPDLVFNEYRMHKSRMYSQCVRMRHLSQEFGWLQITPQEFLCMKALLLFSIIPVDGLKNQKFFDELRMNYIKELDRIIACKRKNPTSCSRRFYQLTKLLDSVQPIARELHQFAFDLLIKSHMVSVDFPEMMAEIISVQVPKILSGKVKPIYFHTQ
Test: PSA (6.1 kb)-luciferase reporter assay in LNCaP cells induced with R1881
Type: cell-based
Conditions: LNCaP cells transfected with PSA (6.1 kb)-luciferase, 1 h pre-treatment, R1881 (1 nM) 24 h
Experimental: LNCaP cells were transiently transfected with PSA (6.1 kb)-luciferase for 24 h prior to pre-treatment with compounds of the invention (e.g., Compound 1c) ranging in concentration from 62.5 ng/ml to 1.5 ug/ml for 1 hour before the addition of vehicle, or synthetic androgen, R1881 (1 nM) to induce luciferase production. After 24 h of incubation with R1881, the cells were harvested, and relative luciferase activities were determined. To determine the IC50, treatments were normalized to the predicted maximal activity induction (in the absence of test compounds, vehicle only).

SMILES: CC(C)(c1ccc(OC[C@H](O)CO)cc1)c1ccc(OC[C@@H](Cl)CO)cc1 [Compound 1c, (R)-3-(4-(2-(4-((S)-2-chloro-3-hydroxypropoxy)phenyl)propan-2-yl)phenoxy)propane-1,2-diol]
- IC50 (Trial 1, read-out: IC50, Trial 1): 14 µM
- IC50 (Trial 2, read-out: IC50, Trial 2): 19.4 µM
- IC50 (Trial 3, read-out: IC50, Trial 3): 17 µM
- IC50 (Trial 4, read-out: IC50, Trial 4): 15.8 µM
- IC50 (average of trials, read-out: Average IC50): 16.7 ± 2.68 µM
